# Source: patent publication US20060217345A1, “Beta-L-nucleosides and use thereof as pharmaceutical agents for the treatment of viral diseases” (priority 2003, published 2006)
# Read-outs that look alike come from different tables or passages of the source.
# Experiments:
# [1] = system: HBV replication in HepG2 2.2.15 cells; assay: Antiviral activity: reduction of extracellular HBV DNA in HepG2 2.2.15 cells; format: cell-based, hepatitis B virus; conditions: read-out: ED50 values (concentration resulting in 50% reduction of HBV DNA in the medium of the cells)
# Method: The antiviral efficacy of the compounds of at least one embodiment was investigated on HepG2 2.2.15 cells, a human hepatoblastoma cell line which has the replication-competent HBV genome stably integrated therein and produces infectious progeny viruses in a productive manner (Sells et al., Proc Natl Acad Sci USA 1987, 84: 1005-1009).
# The above cells were cultured under standardized conditions as specified by Korba and Gerin, and the amount of extracellular viral DNA was determined (Korba et al., Antiviral Res 1992, 19: 55-70).
# Following passaging, the HepG2 2.2.15 cells were seeded at a density of about 60% in 12-well plates and cultured to confluence in 10% FBS Dulbecco MEM. Thereafter, the medium was changed to 2% FBS, and the cells were cultured for another 24 hours.
# After another change of medium, the cells were treated with varying concentrations of compounds according to at least one embodiment. Every 24 hours the compounds were re-added together with the medium. […]
# Following treatment of the culture supernatants with proteinase K, the extracellular viral DNA was amplified by means of PCR using the following primers (forward: 5′-CTCCAGTTCAGGAACAGTAAACCC-3′; reverse: 5′-TTGTGAGCTCAGAAAGGCCTTGTAAGTTGGCG-3′. The PCR products were separated on 1% agarose, stained with ethidium bromide and quantified using a Fluor-S™ Multimager (Biorad).
# For calibration of the PCR reaction, serial dilutions of the pUC19 HBV and pTHBV plasmids with known genome equivalents (GE) were used, resulting in a lower detection limit of about 10^3 GE and a linearity between 10^3 and 10^5 GE.
# [2] = system: HBV replication; conditions: 5-modified β-L-cytosine nucleosides; compares with compounds with non-modified bases; cited from earlier work
# [3] = molecular target: T1, HBV DNA polymerase (Hepatitis B virus genotype D subtype ayw, UniProt P03156); assay: Inhibition of endogenous HBV DNA polymerase activity (3H-dCTP incorporation); format: biochemical; conditions: nucleoside triphosphates; purified virus particles from patient serum; 0.7 μM dCTP; two-hour incubation at 37° C.; read-out: IC50 (50% inhibition of the HBV DNA polymerase activity)
# T1 construct: 30 μl of polymerase batch included about 2-4×10^8 purified virus particles (lysed beforehand); from tissue; host or cells: Serum of patients infected with hepatitis B virus (Charité, Berlin); virus particles purified through a saccharose gradient and lysed
# Method: Synthesis and purification of the triphosphates of β-L-5-methylcytidine nucleosides were effected according to well-known methods (Yoshikawa et al., Tetradedron Lett 1967, 50: 5065-5068; Hoard et Ott, J Am Chem Soc 1965, 87: 1785-1788).
# To determine the endogenous HBV DNA polymerase activity, about 60 ml of serum from patients with hepatitis B virus infections from Charité, Berlin (>10^7 HBV particles/ml), was centrifuged at 3000 rpm, followed by sedimentation of the virus particles at 25,000 g, 60 min, taking up in 7 ml of TKM buffer (50 mM Tris-HCl, pH 7.5, 50 mM KCl, 5 mM MgCl2), and centrifugation through a saccharose gradient (0.3 M, 0.6 M, 0.9 M saccharose in 10 ml of TKM buffer each time) at 25,000 g for 20 hours. The purified virus sediment was suspended in 400 μl of TKM using ultrasound, divided in aliquots and frozen at −80° C. (Davies et al., Antiviral Res 1996, 30: 133-145).
# 30 μl of polymerase batch included about 2-4×10^8 purified virus particles (lysed beforehand in 6% β-mercaptoethanol, 10% Igepal for 15 min at room temperature), 42 mM Tris-HCl, (pH 7.5), 34 mM MgCl2, 340 mM KCl, 22 mM β-mercaptoethanol, 0.4% Igepal, 70 μM TTP, dATP, dGTP and 1 μCi ^3H-dCTP (=0.7 μM dCTP) (Matthes et al., Antimicrob Agents & Chemoth 1991, 35: 1254-1257) and varying concentrations of β-L-5-methylcytidine nucleoside triphosphates.
# Following a two-hour incubation at 37° C., 20 μl of each batch was placed on paper filter, washed 5 times with 5% trichloroacetic acid and 0.1% Na pyrophosphate, and the ^3H-dCTP incorporated in the HBV DNA was subsequently measured in a Liquid Scintillation Counter.
# Using the concentration-dependent inhibition curves of HBV DNA synthesis, the concentration of β-L-5-methylcytidine nucleoside triphosphates resulting in 50% inhibition of the HBV DNA polymerase activity was determined. The IC50 values are illustrated in Table 2.
# [4] = system: HL-60 cells; assay: Cytotoxicity: inhibition of proliferation of HL-60 cells; format: cell-based, human; conditions: RPMI medium, incubated for two days
# Method: (§1) To this end, established cells of a human myeloid leukemia (HL-60) in RPMI medium, and the above-mentioned HepG2 cells in Dulbecco MEM, respectively, were incubated for two days using varying concentrations of compounds, and the proliferation rate of the cells was subsequently determined. The data was used to determine the concentration of compounds resulting in 50% inhibition of proliferation (CD50).
# [5] = system: HepG2 cells; assay: Cytotoxicity: inhibition of proliferation of HepG2 cells; format: cell-based, human; conditions: Hep G2 cells, Dulbecco MEM, incubated for two days
# Method: as §1
# [6] = system: HBV infections; conditions: treatment of HBV infections; cited from earlier work
# [7] = HepG2 2.2.15 cells, extracellular HBV DNA by PCR, after 9 days of incubation
# T1 sequence (P03156 whole entry): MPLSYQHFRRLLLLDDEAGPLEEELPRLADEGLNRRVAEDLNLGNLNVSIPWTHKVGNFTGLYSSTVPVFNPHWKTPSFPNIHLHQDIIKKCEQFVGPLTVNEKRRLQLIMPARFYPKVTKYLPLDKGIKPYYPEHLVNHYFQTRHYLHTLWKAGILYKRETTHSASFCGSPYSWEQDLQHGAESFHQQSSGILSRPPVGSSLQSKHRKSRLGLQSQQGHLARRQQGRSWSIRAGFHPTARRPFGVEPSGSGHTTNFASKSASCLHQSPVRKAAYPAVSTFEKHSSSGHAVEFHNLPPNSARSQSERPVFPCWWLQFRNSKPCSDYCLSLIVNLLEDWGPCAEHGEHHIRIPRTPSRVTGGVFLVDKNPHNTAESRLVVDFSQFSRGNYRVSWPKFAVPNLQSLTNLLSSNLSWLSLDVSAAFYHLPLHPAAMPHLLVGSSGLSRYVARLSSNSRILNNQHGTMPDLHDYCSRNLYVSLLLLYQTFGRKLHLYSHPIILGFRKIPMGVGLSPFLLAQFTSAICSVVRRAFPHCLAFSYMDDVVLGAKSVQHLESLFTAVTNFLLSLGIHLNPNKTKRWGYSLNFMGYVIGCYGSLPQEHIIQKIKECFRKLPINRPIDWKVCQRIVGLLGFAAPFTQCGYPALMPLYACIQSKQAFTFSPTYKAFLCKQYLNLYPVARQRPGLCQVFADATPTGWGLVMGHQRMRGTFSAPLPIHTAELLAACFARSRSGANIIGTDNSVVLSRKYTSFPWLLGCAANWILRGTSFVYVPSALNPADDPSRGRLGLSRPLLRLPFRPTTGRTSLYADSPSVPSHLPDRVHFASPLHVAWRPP
molecule,measurement,setting,value
"Nc1ccn([C@@H]2CS[C@H](CO)O2)c(=O)n1 [3TC, β-L-2′,3′-dideoxy-3′-thiacytidine, reference compound]",EC50,"[1]; Hepatitis B virus, 216 h, HepG2 2.2.15 cells, extracellular HBV DNA by PCR, after 9 days of incubation",0.1 to 0.2 µM
"Nc1nc(=O)n([C@H]2C[C@H](O)[C@@H](CO)O2)cc1Cl [CldC, β-L-deoxy-5-chlorocytidine]","effect with respect to HBV replication, as described in the literature",[2],ineffective or sparingly effective
"Nc1nc(=O)n([C@H]2C[C@H](O)[C@@H](CO)O2)cc1F [FdC, β-L-deoxy-5-fluorocytidine]","effect with respect to HBV replication, as described in the literature",[2],less effective
"Nc1nc(=O)n(C2OC(CO)C=C2F)cc1F [L-2′F-ddeFC, β-L-2′,3′-dideoxy-2′,3′-didehydro-2′-fluoro-5-fluorocytidine]","effect with respect to HBV replication, as described in the literature",[2],equally effective
"Nc1nc(=O)n([C@H]2O[C@@H](CO)[C@H](O)[C@H]2O)cc1F [L-AraFC, β-L-arabinofuranosyl-5-fluorocytosine]","effect with respect to HBV replication, as described in the literature",[2],no effect
"Nc1nc(=O)n([C@H]2O[C@@H](CO)[C@H](O)[C@H]2F)cc1Br [L-FABrC, β-L-2′-fluoroarabinofuranosyl-5-bromocytosine]","effect with respect to HBV replication, as described in the literature",[2],ineffective or sparingly effective
"Nc1nc(=O)n([C@H]2O[C@@H](CO)[C@H](O)[C@H]2F)cc1Cl [L-FAC1C, β-L-2′-fluoroarabinofuranosyl-5-chlorocytidine]","effect with respect to HBV replication, as described in the literature",[2],ineffective or sparingly effective
"Nc1nc(=O)n([C@H]2O[C@@H](CO)[C@H](O)[C@H]2F)cc1F [L-FAFC, β-L-2′-fluoroarabinofuranosyl-5-fluorocytosine]","effect with respect to HBV replication, as described in the literature",[2],no effect
"Nc1nc(=O)n([C@H]2CC[C@@H](CO)O2)cc1F [L-FddC, β-L-2′,3′-dideoxy-5-fluorocytidine]","effect with respect to HBV replication, as described in the literature",[2],equally effective
"Nc1nc(=O)n([C@@H]2C=C[C@H](CO)O2)cc1F [L-FddeC, β-L-2′,3′-dideoxy-2′,3′-didehydro-5-fluorocytidine]","effect with respect to HBV replication, as described in the literature",[2],more effective
"Nc1ccn([C@@H]2CS[C@H](COP(=O)(O)OP(=O)(O)OP(=O)(O)O)O2)c(=O)n1 [Triphosphate of 3TC, reference compound]",IC50,[3],0.3 µM
Cc1cn([C@H]2O[C@@H](COP(=O)(O)OP(=O)(O)OP(=O)(O)O)[C@H](O)[C@H]2O)c(=O)nc1N [Triphosphate of β-L-AraMetC],IC50,[3],10.8 µM
Cc1cn([C@@H]2C[C@@H](O)[C@H](COP(=O)(O)OP(=O)(O)OP(=O)(O)O)O2)c(=O)nc1N [Triphosphate of β-L-MetCdR],IC50,[3],0.9 µM
Cc1cn([C@@H]2C[C@@H](N=[N+]=[N-])[C@H](COP(=O)(O)OP(=O)(O)OP(=O)(O)O)O2)c(=O)nc1N [Triphosphate of β-L-N3MetCdR],IC50,[3],0.8 µM
Cc1cn([C@@H]2CC[C@H](COP(=O)(O)OP(=O)(O)OP(=O)(O)O)O2)c(=O)nc1N [Triphosphate of β-L-ddMetCdR],IC50,[3],6.5 µM
Cc1cn([C@@H]2C=C[C@H](COP(=O)(O)OP(=O)(O)OP(=O)(O)O)O2)c(=O)nc1N [Triphosphate of β-L-ddeMetCdR],IC50,[3],6.2 µM
"Cc1cn([C@@H]2C[C@@H](F)[C@H](CO)O2)c(=O)nc1N [β-L-2′,3′-dideoxy-3′-fluoro-5-methylcytidine]","effect with respect to HBV replication, as described in the literature",[2],ineffective or sparingly effective
"Nc1nc(=O)n(C2CSC(CO)O2)cc1Br [β-L-2′,3′-dideoxy-3′-thia-5-bromocytidine]","effect with respect to HBV replication, as described in the literature",[2],ineffective or sparingly effective
"Nc1nc(=O)n(C2CSC(CO)O2)cc1Cl [β-L-2′,3′-dideoxy-3′-thia-5-chlorocytidine]","effect with respect to HBV replication, as described in the literature",[2],ineffective or sparingly effective
"Cc1cn(C2CSC(CO)O2)c(=O)nc1N [β-L-2′,3′-dideoxy-3′-thia-5-methylcytidine]","effect with respect to HBV replication, as described in the literature",[2],ineffective or sparingly effective
"Cc1cn([C@H]2O[C@@H](CO)[C@H](O)[C@H]2O)c(=O)nc1N [β-L-AraMetC, 1-β-L-arabinofuranosyl-5-methylcytosine]",EC50,"[1]; Hepatitis B virus, HepG2 2.2.15, 216 h",> 20 µM
same,"Cytotoxicity (CD50), concentration resulting in 50% inhibition of proliferation",[4],>2000
same,"Cytotoxicity (CD50), concentration resulting in 50% inhibition of proliferation",[5],>2000
"Cc1cn([C@@H]2C[C@@H](O)[C@H](CO)O2)c(=O)nc1N [β-L-MetCdR, β-L-5-methyldeoxycytidine]",EC50,[1]; [7],0.27 to 0.6 µM
same,"Cytotoxicity (CD50), concentration resulting in 50% inhibition of proliferation",[4],>2000
same,"Cytotoxicity (CD50), concentration resulting in 50% inhibition of proliferation",[5],>2000
"Cc1cn([C@@H]2C[C@@H](N=[N+]=[N-])[C@H](CO)O2)c(=O)nc1N [β-L-N3MetCdR, β-L-3′-azido-2′,3′-dideoxy-5-methylcytidine]",EC50,[1]; [7],0.35 to 0.95 µM
same,"Cytotoxicity (CD50), concentration resulting in 50% inhibition of proliferation",[4],2000
same,"Cytotoxicity (CD50), concentration resulting in 50% inhibition of proliferation",[5],>2000
"Cc1cn([C@@H]2CC[C@H](CO)O2)c(=O)nc1N [β-L-ddMetC, β-L-2′,3′-dideoxy-5-methylcytidine]",EC50,[1]; [7],> 20 µM
"Cc1cn([C@@H]2C=C[C@H](CO)O2)c(=O)nc1N [β-L-ddeMetC, β-L-2′,3′-didehydro-2′,3′-dideoxy-5-methylcytidine]",EC50,[1]; [7],> 20 µM
same,"Cytotoxicity (CD50), concentration resulting in 50% inhibition of proliferation",[4],600
same,"Cytotoxicity (CD50), concentration resulting in 50% inhibition of proliferation",[5],1500
α-interferon,proportion of the patients in whom it is effective,[6],about 33%
